Laboratory results as given in ChEMBL document CHEMBL3817727, “Fluorinated thiazolidinols cause cell death in A549 lung cancer cells via PI3K/AKT/mTOR and MAPK/ERK signalling pathways” (Medchemcomm, 2016).
The source made the active and inactive calls. No cut-off for these calls is given here.

Columns and labels:
A549 [1] = test: Cytotoxicity against human A549 cells assessed as reduction in cell viability after 24 hrs by MTT assay; format: functional, cell-based; details: A549, 24 h
MDA-MB-231 = test: Cytotoxicity against human MDA-MB-231 cells assessed as reduction in cell viability after 24 hrs by MTT assay; format: functional, cell-based; details: MDA-MB-231, 24 h
HeLa = test: Cytotoxicity against human HeLa cells assessed as reduction in cell viability after 24 hrs by MTT assay; format: functional, cell-based
MCF7 = test: Cytotoxicity against human MCF7 cells assessed as reduction in cell viability after 24 hrs by MTT assay; format: functional, cell-based; details: MCF7, 24 h
A549 [2] = test: Cell cycle arrest in human A549 cells assessed as accumulation at subG1 phase at 4 uM after 24 hrs by propidium iodide staining based flow cytometry (reference value: 1.11%); format: functional
A549 [3] = test: Cell cycle arrest in human A549 cells assessed as accumulation at G0/G1 phase at 4 uM after 24 hrs by propidium iodide staining based flow cytometry (reference value: 69.5%); format: functional
A549 [4] = test: Cell cycle arrest in human A549 cells assessed as accumulation at S phase at 4 uM after 24 hrs by propidium iodide staining based flow cytometry (reference value: 8.85%); format: functional
A549 [5] = test: Cell cycle arrest in human A549 cells assessed as accumulation at G2/M phase at 4 uM after 24 hrs by propidium iodide staining based flow cytometry (reference value: 21.58%); format: functional
A549 [6] = test: Induction of cell death in human A549 cells assessed as increase in LC3-2 expression after 24 hrs by Western blot analysis; format: functional, cell-based
A549 [7] = test: Inhibition of PI3K/Akt/mTOR signalling in human A549 cells assessed as downregulation of Akt expression at 4 uM after 24 hrs by Western blot analysis; format: cell-based
A549 [8] = test: Induction of autophagy in human A549 cells assessed as increase in Atg7 expression after 24 hrs by Western blot analysis; format: functional, cell-based
A549 [9] = test: Inhibition of PI3K/Akt/mTOR signalling in human A549 cells assessed as downregulation of PI3K expression at 4 uM after 24 hrs by Western blot analysis; format: cell-based
A549 [10] = test: Inhibition of PI3K/Akt/mTOR signalling in human A549 cells assessed as reduction in Akt phosphorylation at Ser-473 residue at 4 uM after 24 hrs by Western blot analysis; format: cell-based
A549 [11] = test: Inhibition of PI3K/Akt/mTOR signalling in human A549 cells assessed as downregulation of mTOR expression at 4 uM after 24 hrs by Western blot analysis; format: cell-based
A549 [12] = test: Inhibition of RAS/MEK/ERK signalling in human A549 cells assessed as decrease in phosphorylated MEK1/2 level at 4 uM after 24 hrs by Western blot analysis; format: cell-based
A549 [13] = test: Inhibition of RAS/MEK/ERK signalling in human A549 cells assessed as decrease in phosphorylated ERK1/2 level at 4 uM after 24 hrs by Western blot analysis; format: cell-based
A549 [14] = test: Upregulation of PTEN expression in human A549 cells at 4 uM after 24 hrs by Cy-3 staining based immunoblot analysis; format: functional, cell-based
A549 [15] = test: Induction of cell death in human A549 cells assessed as LC3-mediated cytoplasmic vacuolation by Hoechst staining based assay; format: functional
A549 [16] = test: Cell cycle arrest in human A549 cells assessed as accumulation at subG1 phase at 10 uM after 24 hrs by propidium iodide staining based flow cytometry (reference value: 1.11%); format: functional
A549 [17] = test: Cell cycle arrest in human A549 cells assessed as accumulation at G0/G1 phase at 10 uM after 24 hrs by propidium iodide staining based flow cytometry (reference value: 69.5%); format: functional
A549 [18] = test: Cell cycle arrest in human A549 cells assessed as accumulation at S phase at 10 uM after 24 hrs by propidium iodide staining based flow cytometry (reference value: 8.85%); format: functional
A549 [19] = test: Cell cycle arrest in human A549 cells assessed as accumulation at G2/M phase at 10 uM after 24 hrs by propidium iodide staining based flow cytometry (reference value: 21.58%); format: functional

OC1(C(F)(F)F)CS/C(=N\c2ccc(Cl)c(C(F)(F)F)c2)N1CCN1CCOCC1 (centres undefined)
IC50 (A549 [1]): 4.15 µM | IC50 (MDA-MB-231): 5.92 µM | IC50 (HeLa): 6.24 µM | IC50 (MCF7): 18.2 µM | Activity (A549 [2]): 6.04% | Activity (A549 [3]): 81.78% | Activity (A549 [4]): 1.89% | Activity (A549 [5]): 10.63% | Activity (A549 [6]): Active | inhibition (A549 [7]): Active | Activity (A549 [8]): Active | inhibition (A549 [9]): Active | inhibition (A549 [10]): Active | inhibition (A549 [11]): Active | inhibition (A549 [12]): Active | inhibition (A549 [13]): Active | Activity (A549 [14]): Active

OC1(C(F)(F)F)CS/C(=N\c2ccc(C(F)(F)F)cc2)N1CCc1ccccn1 (centres undefined)
IC50 (A549 [1]): 12.8 µM | IC50 (MDA-MB-231): 20.9 µM | IC50 (HeLa): 21 µM | IC50 (MCF7): 25.3 µM

OC1(C(F)(F)F)CS/C(=N\c2ccccc2)N1Cc1ccco1 (centres undefined)
IC50 (A549 [1]): 8.26 µM | IC50 (MDA-MB-231): 21.6 µM | IC50 (HeLa): 24.8 µM | IC50 (MCF7): 29.4 µM

OC1(C(F)(F)F)CS/C(=N\c2ccc(Cl)c(C(F)(F)F)c2)N1Cc1cccs1 (centres undefined)
IC50 (A549 [1]): 3.57 µM | IC50 (MDA-MB-231): 4.48 µM | IC50 (HeLa): 6.41 µM | IC50 (MCF7): 11.4 µM | Activity (A549 [2]): 3.57% | Activity (A549 [3]): 75.3% | Activity (A549 [4]): 5.81% | Activity (A549 [5]): 16.15% | Activity (A549 [15]): Active | Activity (A549 [6]): Active | inhibition (A549 [7]): Active | Activity (A549 [8]): Active | inhibition (A549 [9]): Active | inhibition (A549 [10]): Active | inhibition (A549 [11]): Active | inhibition (A549 [12]): Active | inhibition (A549 [13]): Active | Activity (A549 [14]): Active

OC1(C(F)(F)F)CS/C(=N\c2ccc(F)cc2)N1c1ccc(F)cc1 (centres undefined)
IC50 (A549 [1]): 14.8 µM | IC50 (MDA-MB-231): 21.3 µM | IC50 (HeLa): 30.7 µM | IC50 (MCF7): 34.1 µM

CCCN1/C(=N/c2ccccc2)SCC1(O)C(F)(F)F (centres undefined)
IC50 (A549 [1]): 14.3 µM | IC50 (MDA-MB-231): 18.7 µM | IC50 (HeLa): 24.4 µM | IC50 (MCF7): 22.5 µM

OC1(C(F)(F)F)CS/C(=N\c2ccccc2)N1CCN1CCOCC1 (centres undefined)
IC50 (A549 [1]): 21.2 µM | IC50 (MDA-MB-231): 23.8 µM | IC50 (HeLa): 26.1 µM | IC50 (MCF7): 37.4 µM

OC1(C(F)(F)F)CS/C(=N\c2ccccc2)N1Cc1cccs1 (centres undefined)
IC50 (A549 [1]): 11.1 µM | IC50 (MDA-MB-231): 23.1 µM | IC50 (HeLa): 24.8 µM | IC50 (MCF7): 33.8 µM

OC1(C(F)(F)F)CS/C(=N\c2ccc(F)cc2)N1c1ccccc1 (centres undefined)
IC50 (A549 [1]): 17.1 µM | IC50 (MDA-MB-231): 19.6 µM | IC50 (HeLa): 32.4 µM | IC50 (MCF7): 25.8 µM

OC1(C(F)(F)F)CS/C(=N\c2ccc(F)c(Cl)c2)N1c1ccccc1 (centres undefined)
IC50 (A549 [1]): 16.8 µM | IC50 (MDA-MB-231): 19 µM | IC50 (HeLa): 19.9 µM | IC50 (MCF7): 22.9 µM

OC1(C(F)(F)F)CS/C(=N\c2ccc(Cl)c(C(F)(F)F)c2)N1Cc1ccco1 (centres undefined)
IC50 (A549 [1]): 3.82 µM | IC50 (MDA-MB-231): 5.12 µM | IC50 (HeLa): 5.84 µM | IC50 (MCF7): 15.1 µM | Activity (A549 [2]): 4.99% | Activity (A549 [3]): 79.77% | Activity (A549 [4]): 4.11% | Activity (A549 [5]): 11.8% | Activity (A549 [15]): Active | Activity (A549 [6]): Active | inhibition (A549 [7]): Active | Activity (A549 [8]): Active | inhibition (A549 [9]): Active | inhibition (A549 [10]): Active | inhibition (A549 [11]): Active | inhibition (A549 [12]): Active | inhibition (A549 [13]): Active | Activity (A549 [14]): Active

OC1(C(F)(F)F)CS/C(=N\c2ccc(C(F)(F)F)cc2)N1Cc1ccco1 (centres undefined)
IC50 (A549 [1]): 13.1 µM | IC50 (MDA-MB-231): 21.7 µM | IC50 (HeLa): 19.7 µM | IC50 (MCF7): 25.1 µM

OC1(C(F)(F)F)CS/C(=N\c2ccccc2)N1CCc1ccccn1 (centres undefined)
IC50 (A549 [1]): 20.1 µM | IC50 (MDA-MB-231): 21.5 µM | IC50 (HeLa): 28.5 µM | IC50 (MCF7): 25.9 µM

OC1(C(F)(F)F)CS/C(=N\c2ccccc2)N1C1CCCCC1 (centres undefined)
IC50 (A549 [1]): 13.8 µM | IC50 (MDA-MB-231): 22.5 µM | IC50 (HeLa): 28.2 µM | IC50 (MCF7): 30.1 µM

OC1(C(F)(F)F)CS/C(=N\c2ccccc2)N1c1ccccc1 (centres undefined)
IC50 (A549 [1]): 18.6 µM | IC50 (MDA-MB-231): 20.9 µM | IC50 (HeLa): 29.4 µM | IC50 (MCF7): 25 µM

OC1(C(F)(F)F)CS/C(=N\c2ccc(Cl)c(C(F)(F)F)c2)N1CCc1ccccn1 (centres undefined)
IC50 (A549 [1]): 6.02 µM | IC50 (MDA-MB-231): 19.6 µM | IC50 (HeLa): 7.12 µM | IC50 (MCF7): 11.3 µM

O=c1cc(N2CCOCC2)oc2c(-c3ccccc3)cccc12 [LY-294002]
IC50 (A549 [1]): 17.7 µM | IC50 (MDA-MB-231): 9.7 µM | IC50 (HeLa): 20.5 µM | IC50 (MCF7): 29.1 µM | Activity (A549 [16]): 5.15% | Activity (A549 [17]): 82.95% | Activity (A549 [18]): 3.24% | Activity (A549 [19]): 9.24%

COc1ccc(N2/C(=N/c3ccc(C(F)(F)F)cc3)SCC2(O)C(F)(F)F)cc1 (centres undefined)
IC50 (A549 [1]): 15.2 µM | IC50 (MDA-MB-231): 20.6 µM | IC50 (HeLa): 16.8 µM | IC50 (MCF7): 29.2 µM

COc1ccc(N2/C(=N/c3ccc(F)cc3)SCC2(O)C(F)(F)F)cc1 (centres undefined)
IC50 (A549 [1]): 4.58 µM | IC50 (MDA-MB-231): 6.64 µM | IC50 (HeLa): 6.98 µM | IC50 (MCF7): 28.7 µM

OC1(C(F)(F)F)CS/C(=N\c2ccccc2)N1C1CC1 (centres undefined)
IC50 (A549 [1]): 15.1 µM | IC50 (MDA-MB-231): 22.7 µM | IC50 (HeLa): 24.6 µM | IC50 (MCF7): 29.2 µM

OC1(C(F)(F)F)CS/C(=N\c2cccc(C(F)(F)F)c2)N1c1cccc(C(F)(F)F)c1 (centres undefined)
IC50 (A549 [1]): 2.84 µM | IC50 (MDA-MB-231): 3.32 µM | IC50 (HeLa): 3.57 µM | IC50 (MCF7): 6.69 µM | Activity (A549 [2]): 3.81% | Activity (A549 [3]): 86.61% | Activity (A549 [4]): 1.71% | Activity (A549 [5]): 8.15% | Activity (A549 [15]): Active | Activity (A549 [6]): Active | inhibition (A549 [7]): Active | Activity (A549 [8]): Active | inhibition (A549 [9]): Active | inhibition (A549 [10]): Active | inhibition (A549 [11]): Active | inhibition (A549 [12]): Active | inhibition (A549 [13]): Active | Activity (A549 [14]): Active

CC(C)(C)N1/C(=N/c2ccc(Cl)c(C(F)(F)F)c2)SCC1(O)C(F)(F)F (centres undefined)
IC50 (A549 [1]): 3.26 µM | IC50 (MDA-MB-231): 4.03 µM | IC50 (HeLa): 5.54 µM | IC50 (MCF7): 32.3 µM | Activity (A549 [2]): 8.63% | Activity (A549 [3]): 82.31% | Activity (A549 [4]): 3.05% | Activity (A549 [5]): 6.79% | Activity (A549 [6]): Active | inhibition (A549 [7]): Active | Activity (A549 [8]): Active | inhibition (A549 [9]): Active | inhibition (A549 [10]): Active | inhibition (A549 [11]): Active | inhibition (A549 [12]): Active | inhibition (A549 [13]): Active | Activity (A549 [14]): Active

OC1(C(F)(F)F)CS/C(=N\c2ccccc2)N1CCc1c[nH]c2ccccc12 (centres undefined)
IC50 (A549 [1]): 10.6 µM | IC50 (MDA-MB-231): 20.6 µM | IC50 (HeLa): 27.7 µM | IC50 (MCF7): 26.6 µM
